Legend:
[1] = target: T1, recombinant Trypanosome AOX (TAO) enzyme (Trypanosoma brucei brucei, UniProt Q26710); assay: TAO enzyme inhibition (quinol oxidase activity, ubiquinol-1 substrate); assay type: biochemical, T. brucei brucei; conditions: TAO-expressing E. coli membrane fraction, 25° C., ubiquinol-1, absorbance at 278 nm
T1 construct: made in house; host or cells: Escherichia coli (membrane fraction)
Description: Escherichia coli membrane fractions that express TAO by a plasmid harboring TAO cDNA cloned from T. brucei brucei (Fukai, Comparative Biochemistry & Physiology, 124, 141-148, 1999) were used as a recombinant Trypanosome AOX (TAO) enzyme. 50 mM Tris-HCl (pH 7.5), TAO-expressing membrane fraction (0.35 ng), and […] of an inhibitor were mixed in a 1 mL cuvette, and the mixture was incubated at 25° C. for 4 minutes. Ubiquinol-1 as a substrate was then added to the mixture to initiated the reaction, and change in absorbance at 278 nm was monitored (Shimadzu UV-3000, molar absorption coefficient ε=15 cm^−1 mM^−1).

T. b. rhodesiense IL1501 = assay: Antiprotozoal effect, MIC measurement in HMI-9 culture; assay type: cell-based; conditions: Trypanosoma brucei, RHODESIENSE, 24 h, bloodstream forms, 18 + 6 hours culture
Description: T. b. rhodesiense IL1501, the human infectious protozoan that causes acute symptoms, was used as a Trypanosomatid protozoan. The bloodstream forms of protozoan can be cultured in a HMI-9 culture medium (Hirumi, 1989). The protozoan was always cultured at a temperature of 37° C. in the presence of 5% CO2.
In a microtiter plate (96-well, FALCON 3072), HMI-9 culture medium and HMI-9 culture medium plus glycerol added to make a final concentration of 8.33 mM are separately prepared. 89 μL of the preparation are put into only the first well, and a 60 μL aliquot of each the other wells. 1 μL of a solution of AF or a AF derivative dissolved in DMSO was added to the first well, and was then suspended. A 30 μL aliquot of the suspension was then collected, was transferred to the second well, and was suspended. These operations were repeated in this order to prepare a three-fold dilution series of drug. A 40 μL aliquot of a protozoan culture was added to each well to make a final concentration of 5×10^4 cells/well (a final concentration of glycerol of 5 mM) followed by 18-hours culturing under conditions of 37° C. and 5% CO2. (For EC50 measurement, a 10 μL aliquot of Alamar Blue was added to each well), culturing was carried out under the same conditions for 6 more hours, surviving protozoans were visually observed with a microscope. The concentration at which no motile surviving protozoan was observed was defined as MIC.

[2] = target: Cryptosporidium cyanide insensitive oxidase (AOX), recombinant protein (cCpAOX) (Cryptosporidium parvum, UniProt Q761U6); assay: CpAOX enzyme inhibition; assay type: biochemical
Chain of Cryptosporidium cyanide insensitive oxidase (AOX), recombinant protein (cCpAOX) (Q761U6 entry or part of it): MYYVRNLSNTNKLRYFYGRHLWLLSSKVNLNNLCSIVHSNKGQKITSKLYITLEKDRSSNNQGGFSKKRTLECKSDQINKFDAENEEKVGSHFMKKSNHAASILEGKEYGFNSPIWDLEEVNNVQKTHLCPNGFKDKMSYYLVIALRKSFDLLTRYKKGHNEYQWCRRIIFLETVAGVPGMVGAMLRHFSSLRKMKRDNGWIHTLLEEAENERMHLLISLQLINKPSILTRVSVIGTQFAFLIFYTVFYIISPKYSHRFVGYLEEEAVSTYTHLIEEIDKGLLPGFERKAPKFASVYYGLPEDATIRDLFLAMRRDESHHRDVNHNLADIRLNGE
Excerpt: Cryptosporidium has found to have cyanide insensitive oxidase (AOX), and its inhibitory activity was observed using its recombinant protein (cCpAOX) produced in E. coli.

T. b. rhodesiense = assay: Treatment of mice infected with T. b. rhodesiense (cure and survival); assay type: in vivo; conditions: Glycerol dose 1.25 g/kg; i.p., five doses at 6 hour interval
Description: Mice were infected with T. b. rhodesiense, a protozoan that causes acute symptoms at 1×10^3 cells/mouse, administration of medication in mice was started 24 hours after the infection, and the mice received five doses of each drug at the dosing interval of 6 hours. Mice were all infected and treated intraperitoneally (i.p). Mice that have no Trypanosomatid protozoan in the blood and survive even 60 days or more after the end of treatment were determined to be cured. Survival days represents an average survival time after treatment in mice that died from infection; therefore, survival days for the group of cured mice are not described in Table 2.

[3] = Glycerol (+), final concentration of glycerol of 5 mM

T1 sequence (Q26710 whole entry): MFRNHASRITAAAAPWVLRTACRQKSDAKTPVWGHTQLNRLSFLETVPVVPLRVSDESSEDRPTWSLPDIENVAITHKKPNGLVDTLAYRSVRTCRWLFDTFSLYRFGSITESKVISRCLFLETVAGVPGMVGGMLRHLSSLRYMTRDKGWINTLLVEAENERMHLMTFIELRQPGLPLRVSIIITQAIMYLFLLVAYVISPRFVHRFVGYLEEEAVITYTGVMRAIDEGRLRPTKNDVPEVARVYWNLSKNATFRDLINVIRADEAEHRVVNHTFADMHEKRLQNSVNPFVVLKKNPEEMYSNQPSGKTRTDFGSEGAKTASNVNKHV

Structure (SMILES) | IC50 [1] | MIC (T. b. rhodesiense IL1501; [3]) | MIC (T. b. rhodesiense IL1501; Glycerol (−)) | IC50 [2] | melting point | Cured/Infected (T. b. rhodesiense)
Cc1c(Cl)c(O)c(CCCCCCCCCC(=O)O)c(O)c1C=O [Compound 215-11-COOH, 10-(3-Chloro-5-formyl-2,6-dihydroxy-4-methylphenyl)decanoic acid] | 1.5 nM | 1500 nM | 4000 nM | 2.1 nM | 154 to 156 °C | 
C/C(=C\Cc1c(O)c(Cl)c(C)c(C=O)c1O)CC/C=C(\C)COC(=O)C(C)(C)C [Compound 234-12-OPiv, (2E,6E)-8-(3-Chloro-5-formyl-2,6-dihydroxy-4-methylphenyl)-2,6-dimethyl-2,6-octadienyl pivalate] | 0.4 nM | 0.031 nM | 0.39 nM |  |  | 5/5
CC(=O)OCCCCCCCCc1c(O)c(Cl)c(C)c(C=O)c1O [Compound 215-11-OAc, 8-(3-Chloro-5-formyl-2,6-dihydroxy-4-methylphenyl)octyl acetate] | 0.6 nM | 7.7 nM | 68 nM | 2.7 nM | 68 °C | 
CCCCC/C(C)=C\Cc1c(O)c(Cl)c(C)c(C=O)c1O [Compound 264-8-z, (Z)-3-Chloro-4,6-dihydroxy-2-methyl-5-(3-methyl-2-octenyl)benzaldehyde] | 0.18 nM | 0.17 nM | 0.25 nM | 1.4 nM | 157 to 158 °C | 
CC(/C=C/C(=O)C(C)(C)C)=C\CC/C(C)=C/Cc1c(O)c(Cl)c(C)c(C=O)c1O [Compound 273-12, 3-Chloro-4,6-dihydroxy-2-methyl-5-[(2E,6E,8E)-3,7,11,11-tetramethyl-10-oxo-2,6,8-dodecatrienyl]benzaldehyde] | 0.23 nM | 1.9 nM | 3.7 nM | 2.2 nM |  | 
Cc1c(Cl)c(O)c(/C=C/CCCCCCCOC(=O)C(C)(C)C)c(O)c1C=O [Compound 200-13-OPiv, (E)-9-(3-Chloro-5-formyl-2,6-dihydroxy-4-methylphenyl)-8-nonenyl pivalate] | 0.32 nM |  |  | 2.2 nM | 69 to 70 °C | 
Cc1c(Cl)c(O)c(CCCCCCCCCC(=O)OCC2COC(C)(C)O2)c(O)c1C=O (stereo not shown) [Compound 502-16-G, 2,2-Dimethyl-1,3-dioxolanee-4-methyl 10-(3-chloro-5-formyl-2,6-dihydroxy-4-methylphenyl)decanoate] | 0.3 nM | 1.2 nM | 12 nM | 2.3 nM | 55 to 56 °C | 
Cc1c(Cl)c(O)c(CCCCCCCCCCCC(=O)OC(C)C)c(O)c1C=O [Compound 215-15-COOiPr, Isopropyl 12-(3-chloro-5-formyl-2,6-dihydroxy-4-methylphenyl)dodecanoate] | 0.32 nM |  |  | 2.5 nM | 82 to 83 °C | 
COC(CC(=O)C(C)(C)C)/C(C)=C/CC/C(C)=C/Cc1c(O)c(Cl)c(C)c(C=O)c1O (stereo not shown) [Compound 271-12] | 0.22 nM | 0.0023 nM | 0.056 nM | 1.6 nM |  | 
Cc1c(Cl)c(O)c(C/C=C/CCCCCOC(=O)C(C)(C)C)c(O)c1C=O [Compound 206-12-OPiv, (E)-8-(3-Chloro-5-formyl-2,6-dihydroxy-4-methylphenyl)-6-octenyl pivalate] | 0.27 nM | 0.006 nM | 0.024 nM | 2.1 nM |  | 
Cc1c(Cl)c(O)c(CCCCCCCOC(=O)C(C)(C)C)c(O)c1C=O [Compound 215-11-OPiv, 7-(3-Chloro-5-formyl-2,6-dihydroxy-4-methylphenyl)heptyl pivalate] | 0.25 nM | 0.094 nM | 0.88 nM | 1.4 nM | 63 to 64 °C | 
Cc1c(Cl)c(O)c(CCCCCCCCOC(=O)C(C)(C)C)c(O)c1C=O [Compound 215-12-OPiv, 8-(3-Chloro-5-formyl-2,6-dihydroxy-4-methylphenyl)octyl pivalate] | 0.32 nM | 0.49 nM | 1.9 nM | 2.7 nM | 70 to 71 °C | 
COC(=O)CCCCCCCCCc1c(O)c(Cl)c(C)c(C=O)c1O [Compound 215-12-COOMe, Methyl 10-(3-chloro-5-formyl-2,6-dihydroxy-4-methylphenyl)decanoate] | 0.25 nM | 5.7 nM | 38 nM | 1.5 nM | 87 to 88 °C | 
Cc1c(Cl)c(O)c(CCCCCCCCCC(=O)OC(C)(C)C)c(O)c1C=O [Compound 215-13-COOBu, tert-Butyl 10-(3-chloro-2,6-dihydroxy-5-formyl-4-methylphenyl)decanoate] | 0.25 nM | 1.2 nM | 16 nM | 0.92 nM |  | 
CCCCCC#CCc1c(O)c(Cl)c(C)c(C=O)c1O [Compound 284-8, 3-Chloro-4,6-dihydroxy-5-(2-octynyl)-2-methylbenzaldehyde] | 0.3 nM | 9.6 nM | 92 nM | 1.9 nM | 135 to 136 °C | 
COC(=O)/C(C)=C/CC/C(C)=C/Cc1c(O)c(Cl)c(C)c(C=O)c1O [Compound 275-10-COOMe, Methyl (2E,6E)-8-(3-Chloro-5-formyl-2,6-dihydroxy-4-methyl)phenyl-2,6-dimethyl-2,6-octadienate] | 0.38 nM | 1.1 nM | 8.7 nM | 1.2 nM |  | 
CCC(=O)OCCCCCCCCCc1c(O)c(Cl)c(C)c(C=O)c1O [Compound 215-13-OCOEt, 9-(3-Chloro-5-formyl-2,6-dihydroxy-4-methylphenyl)nonyl propionate] | 0.2 nM | 7.1 nM | 125 nM | 2.1 nM | 69 to 70 °C | 
CCC(=O)OCCCCCCCCc1c(O)c(Cl)c(C)c(C=O)c1O [Compound 215-12-OCOEt, 8-(3-Chloro-5-formyl-2,6-dihydroxy-4-methylphenyl)octyl propionate] | 0.29 nM |  |  | 2.2 nM | 63 to 64 °C | 
CC(C)=CCC/C=C/Cc1c(O)c(Cl)c(C)c(C=O)c1O [Compound 278-8, (E)-3-Chloro-4,6-dihydroxy-2-methyl-5-(7-methyl-2,6-octadienyl)benzaldehyde] | 0.25 nM | 7.4 nM | 14 nM | 1.2 nM |  | 
CC(=O)/C(C)=C/CC/C(C)=C/Cc1c(O)c(Cl)c(C)c(C=O)c1O [Compound 276-9] | 1.2 nM | 0.53 nM | 13 nM | 2.1 nM | 119 to 120 °C | 
Cc1c(Cl)c(O)c(CCCCCCCCCC(=O)OC(C)C)c(O)c1C=O [Compound 215-13-COOiPr, Isopropyl 10-(3-chloro-2,6-dihydroxy-5-formyl-4-methylphenyl)decanoate] | 0.43 nM | 0.061 nM | 1.7 nM | 2.2 nM | 49 °C | 
CCOC(=O)CCCCCCCCCCCc1c(O)c(Cl)c(C)c(C=O)c1O [Compound 215-15-COOEt, Ethyl 12-(3-chloro-5-formyl-2,6-dihydroxy-4-methylphenyl)dodecanoate] | 0.3 nM |  |  | 1.8 nM |  | 
Cc1c(Cl)c(O)c(CCCCCCCC(=O)Oc2c3ccccc3cc3ccccc23)c(O)c1C=O [Compound 215-18-Anthra, 9-Anthryl 8-(3-chloro-5-formyl-2,6-dihydroxy-4-methylphenyl)octanate] | 0.5 nM | 3.8 nM | 6.6 nM | 2.6 nM |  | 
Cc1c(Cl)c(O)c(CCCCCCC(C)C)c(O)c1C=O [Compound 279-8, 3-Chloro-4,6-dihydroxy-2-methyl-5-(7-methyloctyl)benzaldehyde] | 0.22 nM | 7.3 nM | 12 nM | 2.1 nM | 93 to 94 °C | 

Source: patent US9440913B2, “Dihydroxybenzene derivatives and antiprotozoal agent comprising same as active ingredient” (NAI INC., priority 2010, dated 2016)
